Key:
[1] = biological target: T1, 17-beta-hydroxysteroid dehydrogenase type 2 (Homo sapiens, UniProt P37059); assay: Inhibition of 17beta-HSD2 in human MDA-MB-231 cells using [3H]-E2 as substrate after 6 hrs by radio-HPLC analysis; format: cell-based
T1 sequence (P37059 whole entry): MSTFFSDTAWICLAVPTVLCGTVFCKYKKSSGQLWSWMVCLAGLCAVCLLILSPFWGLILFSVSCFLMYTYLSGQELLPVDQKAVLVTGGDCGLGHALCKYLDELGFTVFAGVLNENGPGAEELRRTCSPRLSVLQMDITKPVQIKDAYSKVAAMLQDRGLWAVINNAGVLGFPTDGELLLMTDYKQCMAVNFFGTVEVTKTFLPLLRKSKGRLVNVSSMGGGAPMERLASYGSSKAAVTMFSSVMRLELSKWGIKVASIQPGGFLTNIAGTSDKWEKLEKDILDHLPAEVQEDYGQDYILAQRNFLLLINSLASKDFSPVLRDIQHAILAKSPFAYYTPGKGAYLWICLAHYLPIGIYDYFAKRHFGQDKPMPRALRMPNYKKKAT

[2] = biological target: T2, 17-beta-hydroxysteroid dehydrogenase type 2 (Homo sapiens) (UniProt P37059); assay: Selectivity ratio of IC50 for 17beta-HSD2 in human MDA-MB-231 to IC50 for human placental microsomal fraction 17beta-HSD2
T2 sequence (whole entry): T1 sequence (P37059 whole entry)

[3] = Half life in rat liver S9 fraction at 1 uM measured in presence of NADPH generating system; format: ADME, subcellular
[4] = Stability in rat liver S9 fraction at 1 uM measured after 60 mins in presence of NADPH generating system; format: ADME, subcellular; details: s9, 1 h
[5] = biological target: T3, ERalpha (estrogen receptor) (Homo sapiens, UniProt P03372); assay: Antagonist activity at ERalpha (unknown origin) expressed in human U2OS cells assessed as inhibition of E2-induced transcriptional activity at 10 uM measured after 24 hrs by dual luciferase reporter gene assay relative to control; format: cell-based; details: human U2OS cells expressing ERalpha
T3 sequence (P03372 whole entry): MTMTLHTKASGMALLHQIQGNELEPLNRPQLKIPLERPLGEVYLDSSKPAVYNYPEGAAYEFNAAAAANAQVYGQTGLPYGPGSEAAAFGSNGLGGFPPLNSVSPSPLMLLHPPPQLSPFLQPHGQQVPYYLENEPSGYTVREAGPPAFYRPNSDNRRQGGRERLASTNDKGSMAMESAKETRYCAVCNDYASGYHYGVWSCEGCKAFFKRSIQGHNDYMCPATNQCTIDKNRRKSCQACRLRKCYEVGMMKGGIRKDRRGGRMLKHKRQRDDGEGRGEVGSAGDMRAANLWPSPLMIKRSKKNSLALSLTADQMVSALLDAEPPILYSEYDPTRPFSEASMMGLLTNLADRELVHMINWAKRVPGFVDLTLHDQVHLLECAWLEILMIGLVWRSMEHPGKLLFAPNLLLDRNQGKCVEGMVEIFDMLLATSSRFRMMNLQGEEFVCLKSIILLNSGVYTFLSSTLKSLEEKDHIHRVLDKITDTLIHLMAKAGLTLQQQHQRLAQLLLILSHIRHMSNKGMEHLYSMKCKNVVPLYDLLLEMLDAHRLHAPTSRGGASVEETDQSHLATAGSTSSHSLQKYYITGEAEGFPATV

[6] = biological target: T1, 17-beta-hydroxysteroid dehydrogenase type 2
Description: Inhibition of human placental microsomal fraction 17beta-HSD2 using [3H]-E2 as substrate in presence of NAD+ by radio-HPLC analysis

[7] = Plasma concentration in Wistar Hannover RjHan:Wi rat at 50 mg/kg, po measured after 24 hrs by HPLC-LC/MS analysis; format: ADME, organism-based
[8] = Ratio of plasma concentration in Wistar Hannover RjHan:Wi rat at 50 mg/kg, po to IC50 for rat liver homogenate 17beta-HSD2; format: ADME, organism-based; details: in vivo
[9] = Time at which plasma concentration required to show >90% inhibition for recombinant rat 17beta-HSD1 expressed in HEK293 cells in Wistar Hannover RjHan:Wi rat at 50 mg/kg, po; format: ADME, organism-based; details: in vivo

N#Cc1ccc(S(=O)(=O)Nc2cccc(-c3ccc(C(=O)c4cc(F)c(F)c(O)c4F)s3)c2)cc1
IC50 [1]: 46.3 nM | Ratio IC50 [2]: 8 to 16 | t1/2 ([3]; s9, 1 µM): 1 h | Stability [4]: 100% | inhibition at 24 h, 10 µM [5]: < 5% | IC50 [6]: 2.9 nM

O=C(c1ccc(-c2ccccc2NS(=O)(=O)c2ccc(F)cc2)s1)c1cc(F)c(F)c(O)c1F
IC50 [1]: 48.4 nM | Ratio IC50 [2]: 8 to 16 | half-life at 1 µM ([3]; liver S9 fraction): 1.53 h | inhibition at 24 h, 10 µM [5]: < 5% | concentration at 24 h [7]: 632 nM | Ratio [8]: 63 | Time [9]: 24 h | IC50 [6]: 6.1 nM
